Experimental data taken from the NIST ThermoML archive (doi:10.1021/je8001255).

Assay: an = ratio of the nth substance listed, in mol/kg
Details: 100 kPa, Liquid; for electrical conductivity: Alternating current cell with electrodes

O=S(=O)([O-])[O-].[Ni+2] [nickel monosulfate] + O
Details | electrical conductivity, 278.15 K [S/m] | electrical conductivity, 283.15 K [S/m] | electrical conductivity, 288.15 K [S/m] | electrical conductivity, 293.15 K [S/m] | electrical conductivity, 298.15 K [S/m] | electrical conductivity, 303.15 K [S/m] | electrical conductivity, 308.15 K [S/m] | mass density, 298.15 K [kg/m3]
a1 = 0.006 | 0.0606 | 0.0696 | 0.079 | 0.0886 | 0.0984 | 0.108 | 0.119 | 998.02
a1 = 0.02566 | 0.192 | 0.221 | 0.25 | 0.28 | 0.31 | 0.341 | 0.372 | 1001.23
a1 = 0.04922 | 0.321 | 0.368 | 0.417 | 0.467 | 0.517 | 0.568 | 0.618 | 1005.09
a1 = 0.122 | 0.656 | 0.753 | 0.852 | 0.954 | 1.06 | 1.16 | 1.26 | 1017.09
a1 = 0.25 | 1.18 | 1.36 | 1.54 | 1.72 | 1.91 | 2.09 | 2.28 | 1038.54
a1 = 0.3674 | 1.55 | 1.78 | 2.01 | 2.25 | 2.5 | 2.75 | 2.99 | 1058.67
a1 = 0.4988 | 1.94 | 2.23 | 2.52 | 2.83 | 3.14 | 3.45 | 3.76 | 1081.77
a1 = 0.68 | 2.39 | 2.75 | 3.12 | 3.51 | 3.9 | 4.29 | 4.63 | 1114.8
a1 = 0.7969 | 2.64 | 3.04 | 3.45 | 3.88 | 4.31 | 4.75 | 5.19 | 1136.9
a1 = 1.022 | 2.99 | 3.46 | 3.94 | 4.44 | 4.95 | 5.47 | 5.99 | 1181.4
a1 = 1.156 | 3.13 | 3.62 | 4.13 | 4.67 | 5.22 | 5.77 | 6.34 | 1208.94
a1 = 1.394 | 3.21 | 3.73 | 4.29 | 4.87 | 5.47 | 6.08 | 6.7 | 1260.5
a1 = 1.601 | 3.11 | 3.64 | 4.2 | 4.8 | 5.42 | 6.06 | 6.7 | 1308
a1 = 1.783 | 2.89 | 3.42 | 3.99 | 4.59 | 5.22 | 5.86 | 6.53 | 1351.92

O=S(=O)([O-])[O-].[Co+2] [cobalt(II) sulfate] + O
Details | electrical conductivity, 278.15 K [S/m] | electrical conductivity, 283.15 K [S/m] | electrical conductivity, 288.15 K [S/m] | electrical conductivity, 293.15 K [S/m] | electrical conductivity, 298.15 K [S/m] | electrical conductivity, 303.15 K [S/m] | electrical conductivity, 308.15 K [S/m] | mass density, 298.15 K [kg/m3]
a1 = 0.00551 | 0.0574 | 0.066 | 0.0749 | 0.084 | 0.0933 | 0.103 | 0.112 | 997.94
a1 = 0.02535 | 0.2 | 0.229 | 0.26 | 0.291 | 0.322 | 0.354 | 0.385 | 1001.16
a1 = 0.05135 | 0.338 | 0.388 | 0.439 | 0.491 | 0.544 | 0.597 | 0.649 | 1005.36
a1 = 0.1014 | 0.58 | 0.665 | 0.752 | 0.841 | 0.93 | 1.02 | 1.11 | 1013.44
a1 = 0.2522 | 1.19 | 1.36 | 1.54 | 1.72 | 1.9 | 2.09 | 2.27 | 1038.18
a1 = 0.4949 | 1.97 | 2.25 | 2.55 | 2.86 | 3.16 | 3.47 | 3.78 | 1079.59
a1 = 0.7706 | 2.63 | 3.03 | 3.43 | 3.85 | 4.27 | 4.7 | 5.12 | 1129.58
a1 = 0.9827 | 2.99 | 3.44 | 3.91 | 4.39 | 4.89 | 5.39 | 5.89 | 1170.36
a1 = 1.151 | 3.17 | 3.66 | 4.17 | 4.7 | 5.23 | 5.78 | 6.33 | 1204.34
a1 = 1.257 | 3.23 | 3.73 | 4.26 | 4.81 | 5.37 | 5.94 | 6.52 | 1227.86
a1 = 1.519 | 3.19 | 3.71 | 4.26 | 4.84 | 5.43 | 6.04 | 6.66 | 1286.2
a1 = 1.719 | 3.03 | 3.59 | 4.17 | 4.76 | 5.37 | 6 | 6.65 | 1331.86

O=S(=O)([O-])[O-].[Zn+2] [zinc sulfate] + O
Details | electrical conductivity, 278.15 K [S/m] | electrical conductivity, 283.15 K [S/m] | electrical conductivity, 288.15 K [S/m] | electrical conductivity, 293.15 K [S/m] | electrical conductivity, 298.15 K [S/m] | electrical conductivity, 303.15 K [S/m] | electrical conductivity, 308.15 K [S/m] | mass density, 298.15 K [kg/m3]
a1 = 0.00628 | 0.0627 | 0.072 | 0.0816 | 0.0916 | 0.102 | 0.112 | 0.122 | 998.09
a1 = 0.02608 | 0.204 | 0.233 | 0.264 | 0.295 | 0.327 | 0.359 | 0.391 | 1001.41
a1 = 0.05064 | 0.333 | 0.382 | 0.432 | 0.483 | 0.534 | 0.585 | 0.638 | 1005.55
a1 = 0.1023 | 0.581 | 0.666 | 0.753 | 0.841 | 0.931 | 1.02 | 1.11 | 1014.14
a1 = 0.2077 | 1.02 | 1.17 | 1.32 | 1.48 | 1.63 | 1.79 | 1.94 | 1031.96
a1 = 0.4748 | 1.92 | 2.2 | 2.49 | 2.79 | 3.09 | 3.38 | 3.68 | 1078.96
a1 = 0.7453 | 2.62 | 3 | 3.4 | 3.81 | 4.23 | 4.65 | 5.07 | 1129.79
a1 = 0.9563 | 3.01 | 3.46 | 3.85 | 4.41 | 4.91 | 5.41 | 5.91 | 1171.99
a1 = 1.191 | 3.27 | 3.78 | 4.31 | 4.86 | 5.42 | 6 | 6.57 | 1221.75
a1 = 1.298 | 3.34 | 3.87 | 4.42 | 5 | 5.59 | 6.19 | 6.8 | 1250.72
a1 = 1.489 | 3.32 | 3.87 | 4.45 | 5.05 | 5.68 | 6.32 | 6.97 | 1293.66
a1 = 1.623 | 3.22 | 3.77 | 4.35 | 4.96 | 5.6 | 6.25 | 6.92 | 1326.7
a1 = 1.826 | 2.96 | 3.49 | 4.07 | 4.68 | 5.32 | 5.99 | 6.67 | 1377.89

O=S(=O)([O-])[O-].[Mn+2] [manganese(II) sulfate] + O
Details | electrical conductivity, 278.15 K [S/m] | electrical conductivity, 283.15 K [S/m] | electrical conductivity, 288.15 K [S/m] | electrical conductivity, 293.15 K [S/m] | electrical conductivity, 298.15 K [S/m] | electrical conductivity, 303.15 K [S/m] | electrical conductivity, 308.15 K [S/m] | mass density, 298.15 K [kg/m3]
a1 = 0.00499 | 0.0524 | 0.06 | 0.068 | 0.0761 | 0.0844 | 0.0928 | 0.101 | 997.79
a1 = 0.00999 | 0.0922 | 0.106 | 0.119 | 0.134 | 0.148 | 0.162 | 0.177 | 998.55
a1 = 0.01997 | 0.16 | 0.183 | 0.207 | 0.231 | 0.255 | 0.279 | 0.303 | 1000.02
a1 = 0.05028 | 0.333 | 0.38 | 0.428 | 0.477 | 0.526 | 0.575 | 0.622 | 1004.5
a1 = 0.1005 | 0.575 | 0.656 | 0.739 | 0.822 | 0.905 | 0.987 | 1.07 | 1011.91
a1 = 0.1991 | 1.01 | 1.15 | 1.29 | 1.44 | 1.58 | 1.72 | 1.86 | 1026.55
a1 = 0.3159 | 1.39 | 1.59 | 1.78 | 1.98 | 2.18 | 2.37 | 2.56 | 1044.23
a1 = 0.4963 | 1.93 | 2.2 | 2.47 | 2.75 | 3.03 | 3.3 | 3.57 | 1072.29
a1 = 0.7442 | 2.5 | 2.85 | 3.21 | 3.57 | 3.93 | 4.29 | 4.65 | 1112.53
a1 = 0.9865 | 2.95 | 3.36 | 3.79 | 4.22 | 4.65 | 5.08 | 5.5 | 1153.87
a1 = 1.208 | 3.07 | 3.51 | 3.97 | 4.44 | 4.91 | 5.38 | 5.85 | 1194.32
a1 = 1.384 | 3.1 | 3.57 | 4.04 | 4.53 | 5.03 | 5.52 | 6.02 | 1227.02
a1 = 1.653 | 2.98 | 3.44 | 3.93 | 4.43 | 4.95 | 5.46 | 5.98 | 1280.18
a1 = 1.826 | 2.78 | 3.25 | 3.72 | 4.21 | 4.72 | 5.23 | 5.75 | 1318.47
a1 = 2.082 | 2.41 | 2.84 | 3.29 | 3.76 | 4.25 | 4.74 | 5.24 | 1371.35
a1 = 2.189 | 2.19 | 2.6 | 3.02 | 3.47 | 3.93 | 4.41 | 4.89 | 1398.09
a1 = 2.434 | 1.6 | 1.93 | 2.28 | 2.66 | 3.06 | 3.48 | 3.9 | 1452.93

O=S(=O)([O-])[O-].[Cu+2] [copper sulfate] + O
Details | electrical conductivity, 278.15 K [S/m] | electrical conductivity, 283.15 K [S/m] | electrical conductivity, 288.15 K [S/m] | electrical conductivity, 293.15 K [S/m] | electrical conductivity, 298.15 K [S/m] | electrical conductivity, 303.15 K [S/m] | electrical conductivity, 308.15 K [S/m] | mass density, 298.15 K [kg/m3]
a1 = 0.00666 | 0.0666 | 0.0763 | 0.0863 | 0.0965 | 0.107 | 0.117 | 0.128 | 998.16
a1 = 0.02534 | 0.196 | 0.224 | 0.253 | 0.282 | 0.311 | 0.34 | 0.369 | 1001.26
a1 = 0.04942 | 0.319 | 0.365 | 0.412 | 0.459 | 0.506 | 0.553 | 0.598 | 1005.23
a1 = 0.09691 | 0.543 | 0.621 | 0.7 | 0.78 | 0.86 | 0.938 | 1.01 | 1013.09
a1 = 0.2535 | 1.17 | 1.34 | 1.51 | 1.68 | 1.85 | 2.02 | 2.19 | 1039.39
a1 = 0.3778 | 1.61 | 1.84 | 2.07 | 2.31 | 2.54 | 2.78 | 3 | 1060.88
a1 = 0.4881 | 1.95 | 2.23 | 2.52 | 2.81 | 3.1 | 3.39 | 3.68 | 1080.51
a1 = 0.6806 | 2.49 | 2.85 | 3.23 | 3.6 | 3.99 | 4.37 | 4.74 | 1115.98
a1 = 0.7935 | 2.75 | 3.15 | 3.57 | 4 | 4.43 | 4.87 | 5.29 | 1137.68
a1 = 0.9197 | 3 | 3.45 | 3.92 | 4.4 | 4.88 | 5.37 | 5.85 | 1162.72
a1 = 1.037 | 3.22 | 3.7 | 4.21 | 4.73 | 5.25 | 5.79 | 6.32 | 1186.79
a1 = 1.138 | 3.34 | 3.85 | 4.39 | 4.94 | 5.51 | 6.08 | 6.66 | 1208.14
a1 = 1.198 | 3.4 | 3.93 | 4.48 | 5.06 | 5.64 | 6.24 | 6.83 | 1220.58
